Results as given in PubChem BioAssay AID2060892 (Molecular Pharmacology Branch, DTP, NCI, 2025).

Test system: HOP-62 complex spheroids with HUVEC/MSC, viability
Assay: Anticancer human tumor HOP-62 cell line growth inhibition [RAS];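 note: spheroids exposed to agents for seven days before readout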;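 for viability, T/C: 100% = DMSO vehicle control viability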
Details: for IC50: curve of first compound; for viability, T/C: stronger effect = lower value
Summary of the method: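 Tumour cells grown as complex spheroids with HUVEC endothelial cells and mesenchymal stem cells, treated with RAS pathway inhibitor combinations. Each agent spans half-log steps from near clinical Cmax, or 10 microM where Cmax is unknown.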

Structure (SMILES): O=C(c1ccc(F)c(F)c1Nc1ccc(I)cc1F)N1CC(O)([C@@H]2CCCCN2)C1 + C#Cc1c(F)ccc2cc(O)cc(-c3ncc4c(N5CC6CCC(C5)N6)nc(OCC56CCCN5CC(F)C6)nc4c3F)c12
- IC50 (second compound 0.0316 µM): 122 nM
- IC50 (second compound 0.1 µM): 149 nM
- IC50 (second compound 0.316 µM): 141 nM
- IC50 (second compound 1 µM): 106 nM
- IC50 (second compound 3.16 µM): 42.1 nM
- IC50 (second compound 10 µM): < 3.16 nM
- viability, T/C (second compound 0.0316 µM, first compound 0.00316 µM): 107%
- viability, T/C (second compound 0.0316 µM, first compound 0.01 µM): 113%
- viability, T/C (second compound 0.0316 µM, first compound 0.0316 µM): 97.3%
- viability, T/C (second compound 0.0316 µM, first compound 0.1 µM): 54.2%
- viability, T/C (second compound 0.0316 µM, first compound 0.316 µM): 30.8%
- viability, T/C (second compound 0.0316 µM, first compound 1 µM): 25.2%
- viability, T/C (second compound 0.1 µM, first compound 0.00316 µM): 112%
- viability, T/C (second compound 0.1 µM, first compound 0.01 µM): 114%
- viability, T/C (second compound 0.1 µM, first compound 0.0316 µM): 90.2%
- viability, T/C (second compound 0.1 µM, first compound 0.1 µM): 61%
- viability, T/C (second compound 0.1 µM, first compound 0.316 µM): 31.3%
- viability, T/C (second compound 0.1 µM, first compound 1 µM): 24%
- viability, T/C (second compound 0.316 µM, first compound 0.00316 µM): 113%
- viability, T/C (second compound 0.316 µM, first compound 0.01 µM): 108%
- viability, T/C (second compound 0.316 µM, first compound 0.0316 µM): 88.3%
- viability, T/C (second compound 0.316 µM, first compound 0.1 µM): 58.1%
- viability, T/C (second compound 0.316 µM, first compound 0.316 µM): 32.2%
- viability, T/C (second compound 0.316 µM, first compound 1 µM): 26.8%
- viability, T/C (second compound 1 µM, first compound 0.00316 µM): 96.7%
- viability, T/C (second compound 1 µM, first compound 0.01 µM): 95.7%
- viability, T/C (second compound 1 µM, first compound 0.0316 µM): 82%
- viability, T/C (second compound 1 µM, first compound 0.1 µM): 50.1%
- viability, T/C (second compound 1 µM, first compound 0.316 µM): 33.2%
- viability, T/C (second compound 1 µM, first compound 1 µM): 25.3%
- viability, T/C (second compound 3.16 µM, first compound 0.00316 µM): 73.6%
- viability, T/C (second compound 3.16 µM, first compound 0.01 µM): 63.6%
- viability, T/C (second compound 3.16 µM, first compound 0.0316 µM): 56.3%
- viability, T/C (second compound 3.16 µM, first compound 0.1 µM): 36.5%
- viability, T/C (second compound 3.16 µM, first compound 0.316 µM): 22.3%
- viability, T/C (second compound 3.16 µM, first compound 1 µM): 18.3%
- viability, T/C (second compound 10 µM, first compound 0.00316 µM): 46.4%
- viability, T/C (second compound 10 µM, first compound 0.01 µM): 47.9%
- viability, T/C (second compound 10 µM, first compound 0.0316 µM): 32.2%
- viability, T/C (second compound 10 µM, first compound 0.1 µM): 23.9%
- viability, T/C (second compound 10 µM, first compound 0.316 µM): 12.5%
- viability, T/C (second compound 10 µM, first compound 1 µM): 11.7%

Structure (SMILES): NC1c2ccccc2OC12CCN(c1cnc3c(N4CCCc5ncccc54)n[nH]c3n1)CC2 (centres undefined) + CCn1c(-c2cccnc2C(C)OC)c2c3cc(ccc31)N1CCOC(CC(NC(=O)C(C(C)C)N(C)C(=O)C3(F)CCN(C(=O)C#CC(C)(C)N(C)C)CC3)C(=O)N3CCCC(N3)C(=O)OCC(C)(C)C2)C1
- IC50 (second compound 0.000949 µM): 183 nM
- IC50 (second compound 0.003 µM): 429 nM
- IC50 (second compound 0.00949 µM): 52.7 nM
- IC50 (second compound 0.03 µM): 64.6 nM
- IC50 (second compound 0.0949 µM): 39.1 nM
- IC50 (second compound 0.3 µM): < 31.6 nM
- viability, T/C (second compound 0.000949 µM, first compound 0.0316 µM): 91.2%
- viability, T/C (second compound 0.000949 µM, first compound 0.1 µM): 70.6%
- viability, T/C (second compound 0.000949 µM, first compound 0.316 µM): 27.8%
- viability, T/C (second compound 0.000949 µM, first compound 1 µM): 44.5%
- viability, T/C (second compound 0.000949 µM, first compound 3.16 µM): 33.4%
- viability, T/C (second compound 0.000949 µM, first compound 10 µM): 19.4%
- viability, T/C (second compound 0.003 µM, first compound 0.0316 µM): 69.4%
- viability, T/C (second compound 0.003 µM, first compound 0.1 µM): 48.5%
- viability, T/C (second compound 0.003 µM, first compound 0.316 µM): 60.5%
- viability, T/C (second compound 0.003 µM, first compound 1 µM): 23.9%
- viability, T/C (second compound 0.003 µM, first compound 3.16 µM): 19.3%
- viability, T/C (second compound 0.003 µM, first compound 10 µM): 9.81%
- viability, T/C (second compound 0.00949 µM, first compound 0.0316 µM): 60%
- viability, T/C (second compound 0.00949 µM, first compound 0.1 µM): 35.3%
- viability, T/C (second compound 0.00949 µM, first compound 0.316 µM): 29.6%
- viability, T/C (second compound 0.00949 µM, first compound 1 µM): 22.7%
- viability, T/C (second compound 0.00949 µM, first compound 3.16 µM): 14.8%
- viability, T/C (second compound 0.00949 µM, first compound 10 µM): 13.2%
- viability, T/C (second compound 0.03 µM, first compound 0.0316 µM): 64.1%
- viability, T/C (second compound 0.03 µM, first compound 0.1 µM): 42.1%
- viability, T/C (second compound 0.03 µM, first compound 0.316 µM): 24%
- viability, T/C (second compound 0.03 µM, first compound 1 µM): 28.3%
- viability, T/C (second compound 0.03 µM, first compound 3.16 µM): 12%
- viability, T/C (second compound 0.03 µM, first compound 10 µM): 14.6%
- viability, T/C (second compound 0.0949 µM, first compound 0.0316 µM): 53.3%
- viability, T/C (second compound 0.0949 µM, first compound 0.1 µM): 35.5%
- viability, T/C (second compound 0.0949 µM, first compound 0.316 µM): 20.7%
- viability, T/C (second compound 0.0949 µM, first compound 1 µM): 16.8%
- viability, T/C (second compound 0.0949 µM, first compound 3.16 µM): 11.5%
- viability, T/C (second compound 0.0949 µM, first compound 10 µM): 14.7%
- viability, T/C (second compound 0.3 µM, first compound 0.0316 µM): 44.4%
- viability, T/C (second compound 0.3 µM, first compound 0.1 µM): 28.6%
- viability, T/C (second compound 0.3 µM, first compound 0.316 µM): 18.4%
- viability, T/C (second compound 0.3 µM, first compound 1 µM): 15.6%
- viability, T/C (second compound 0.3 µM, first compound 3.16 µM): 13.5%
- viability, T/C (second compound 0.3 µM, first compound 10 µM): 15.2%
